The record followed here is ChEMBL document CHEMBL4765467, “Improving Thermodynamic Stability and Anticoagulant Activity of a Thrombin Binding Aptamer by Incorporation of 8-trifluoromethyl-2'-deoxyguanosine” (J Med Chem, 2021).

Data set [1] in a line: Thermodynamic stability assessed as change in melting temperature by CD spectroscopy relative to TBA. The format is physicochemical.
Data set [2] relates to Plasma. Description: Anticoagulant activity in human plasma assessed prothrombin time at 0.25 to 1 uM. Conditions: dose 0.25-1 µM. The format is functional.
Data set [3] can be described thus: Stability in 50% human plasma assessed as compound degradation at 50 uM measured within 3 hrs by PAGE analysis. Type of data set: ADME, cell-free.
Data set [4] relates to Plasma. In words: Anticoagulant activity in human plasma assessed prothrombin time in presence of complementary sequence of TBA. The format is functional, cell-free.
The subject of data set [5] is Plasma. In words: Anticoagulant activity in human plasma assessed prothrombin time in presence of 1.5 fold complementary sequence of TBA. Type of data set: functional, cell-free.

Active and inactive are the calls of the source. No cut-off for these calls is given here.

For the compound `Cc1cn([C@H]2C[C@H](OP(=O)(O)OC[C@H]3O[C@@H](n4cnc5c(=O)[nH]c(N)nc54)C[C@@H]3OP(=O)(O)OC[C@H]3O[C@@H](n4cnc5c(=O)[nH]c(N)nc54)C[C@@H]3OP(=O)(O)OC[C@H]3O[C@@H](n4cc(C)c(=O)[nH]c4=O)C[C@@H]3OP(=O)(O)OC[C@H]3O[C@@H](n4c(C(F)(F)F)nc5c(=O)[nH]c(N)nc54)C[C@@H]3OP(=O)(O)OC[C@H]3O[C@@H](n4cc(C)c(=O)[nH]c4=O)C[C@@H]3OP(=O)(O)OC[C@H]3O[C@@H](n4cnc5c(=O)[nH]c(N)nc54)C[C@@H]3OP(=O)(O)OC[C@H]3O[C@@H](n4cnc5c(=O)[nH]c(N)nc54)C[C@@H]3OP(=O)(O)OC[C@H]3O[C@@H](n4cc(C)c(=O)[nH]c4=O)C[C@@H]3OP(=O)(O)OC[C@H]3O[C@@H](n4cc(C)c(=O)[nH]c4=O)C[C@@H]3OP(=O)(O)OC[C@H]3O[C@@H](n4cnc5c(=O)[nH]c(N)nc54)C[C@@H]3OP(=O)(O)OC[C@H]3O[C@@H](n4cnc5c(=O)[nH]c(N)nc54)C[C@@H]3O)[C@@H](COP(=O)(O)O[C@H]3C[C@H](n4cc(C)c(=O)[nH]c4=O)O[C@@H]3COP(=O)(O)O[C@H]3C[C@H](n4cnc5c(=O)[nH]c(N)nc54)O[C@@H]3COP(=O)(O)O[C@H]3C[C@H](n4cnc5c(=O)[nH]c(N)nc54)O[C@@H]3COP(=O)(O)O)O2)c(=O)[nH]c1=O`, the deltaTm in data set [1] was -3.1 °C. The same compound displayed a PT in the data set with Plasma [2] of 19.1 s. Besides, in data set [3], the Stabilty entry is “Unstable”.

Take `Cc1cn([C@H]2C[C@H](OP(=O)(O)OC[C@H]3O[C@@H](n4cnc5c(=O)[nH]c(N)nc54)C[C@@H]3OP(=O)(O)OC[C@H]3O[C@@H](n4cnc5c(=O)[nH]c(N)nc54)C[C@@H]3O)[C@@H](COP(=O)(O)O[C@H]3C[C@H](n4cc(C)c(=O)[nH]c4=O)O[C@@H]3COP(=O)(O)O[C@H]3C[C@H](n4cnc5c(=O)[nH]c(N)nc54)O[C@@H]3COP(=O)(O)O[C@H]3C[C@H](n4cnc5c(=O)[nH]c(N)nc54)O[C@@H]3COP(=O)(O)O[C@H]3C[C@H](n4cc(C)c(=O)[nH]c4=O)O[C@@H]3COP(=O)(O)O[C@H]3C[C@H](n4cnc5c(=O)[nH]c(N)nc54)O[C@@H]3COP(=O)(O)O[C@H]3C[C@H](n4cc(C)c(=O)[nH]c4=O)O[C@@H]3COP(=O)(O)O[C@H]3C[C@H](n4cnc5c(=O)[nH]c(N)nc54)O[C@@H]3COP(=O)(O)O[C@H]3C[C@H](n4c(C(F)(F)F)nc5c(=O)[nH]c(N)nc54)O[C@@H]3COP(=O)(O)O[C@H]3C[C@H](n4cc(C)c(=O)[nH]c4=O)O[C@@H]3COP(=O)(O)O[C@H]3C[C@H](n4cc(C)c(=O)[nH]c4=O)O[C@@H]3COP(=O)(O)O[C@H]3C[C@H](n4cnc5c(=O)[nH]c(N)nc54)O[C@@H]3COP(=O)(O)O[C@H]3C[C@H](n4cnc5c(=O)[nH]c(N)nc54)O[C@@H]3COP(=O)(O)O)O2)c(=O)[nH]c1=O`: the deltaTm in data set [1] stood at 8.1 °C. Besides, the PT in the data set with Plasma [2] worked out at 26 s. Also, the Stabilty entry in data set [3] was “Unstable”.

For `Cc1cn([C@H]2C[C@H](OP(=O)(O)OC[C@H]3O[C@@H](n4cnc5c(=O)[nH]c(N)nc54)C[C@@H]3OP(=O)(O)OC[C@H]3O[C@@H](n4cnc5c(=O)[nH]c(N)nc54)C[C@@H]3OP(=O)(O)OC[C@H]3O[C@@H](n4cc(C)c(=O)[nH]c4=O)C[C@@H]3OP(=O)(O)OC[C@H]3O[C@@H](n4cnc5c(=O)[nH]c(N)nc54)C[C@@H]3OP(=O)(O)OC[C@H]3O[C@@H](n4cc(C)c(=O)[nH]c4=O)C[C@@H]3OP(=O)(O)OC[C@H]3O[C@@H](n4cnc5c(=O)[nH]c(N)nc54)C[C@@H]3OP(=O)(O)OC[C@H]3O[C@@H](n4cnc5c(=O)[nH]c(N)nc54)C[C@@H]3OP(=O)(O)OC[C@H]3O[C@@H](n4cc(C)c(=O)[nH]c4=O)C[C@@H]3OP(=O)(O)OC[C@H]3O[C@@H](n4cc(C)c(=O)[nH]c4=O)C[C@@H]3OP(=O)(O)OC[C@H]3O[C@@H](n4cnc5c(=O)[nH]c(N)nc54)C[C@@H]3OP(=O)(O)OC[C@H]3O[C@@H](n4cnc5c(=O)[nH]c(N)nc54)C[C@@H]3O)[C@@H](COP(=O)(O)O[C@H]3C[C@H](n4cc(C)c(=O)[nH]c4=O)O[C@@H]3COP(=O)(O)O[C@H]3C[C@H](n4c(C(F)(F)F)nc5c(=O)[nH]c(N)nc54)O[C@@H]3COP(=O)(O)O[C@H]3C[C@H](n4cnc5c(=O)[nH]c(N)nc54)O[C@@H]3COP(=O)(O)O)O2)c(=O)[nH]c1=O`, in data set [1], the deltaTm was -17.3 °C. Further, the PT in the data set with Plasma [2] is recorded as 9.9 s. Also, in data set [3], the Stabilty result is “Unstable”.

Turning to `Cc1cn([C@H]2C[C@H](OP(=O)(O)OC[C@H]3O[C@@H](n4cnc5c(=O)[nH]c(N)nc54)C[C@@H]3OP(=O)(O)OC[C@H]3O[C@@H](n4cnc5c(=O)[nH]c(N)nc54)C[C@@H]3OP(=O)(O)OC[C@H]3O[C@@H](n4cc(C)c(=O)[nH]c4=O)C[C@@H]3OP(=O)(O)OC[C@H]3O[C@@H](n4cnc5c(=O)[nH]c(N)nc54)C[C@@H]3OP(=O)(O)OC[C@H]3O[C@@H](n4cc(C)c(=O)[nH]c4=O)C[C@@H]3OP(=O)(O)OC[C@H]3O[C@@H](n4c(C(F)(F)F)nc5c(=O)[nH]c(N)nc54)C[C@@H]3OP(=O)(O)OC[C@H]3O[C@@H](n4cnc5c(=O)[nH]c(N)nc54)C[C@@H]3OP(=O)(O)OC[C@H]3O[C@@H](n4cc(C)c(=O)[nH]c4=O)C[C@@H]3OP(=O)(O)OC[C@H]3O[C@@H](n4cc(C)c(=O)[nH]c4=O)C[C@@H]3OP(=O)(O)OC[C@H]3O[C@@H](n4cnc5c(=O)[nH]c(N)nc54)C[C@@H]3OP(=O)(O)OC[C@H]3O[C@@H](n4cnc5c(=O)[nH]c(N)nc54)C[C@@H]3O)[C@@H](COP(=O)(O)O[C@H]3C[C@H](n4cc(C)c(=O)[nH]c4=O)O[C@@H]3COP(=O)(O)O[C@H]3C[C@H](n4cnc5c(=O)[nH]c(N)nc54)O[C@@H]3COP(=O)(O)O[C@H]3C[C@H](n4cnc5c(=O)[nH]c(N)nc54)O[C@@H]3COP(=O)(O)O)O2)c(=O)[nH]c1=O`, the deltaTm in data set [1] is 7.6 °C. The PT in the data set on Plasma [2] is on record as 21.9 s. Besides, the Stabilty result in data set [3] was “Unstable”.

With `Cc1cn([C@H]2C[C@H](OP(=O)(O)OC[C@H]3O[C@@H](n4cnc5c(=O)[nH]c(N)nc54)C[C@@H]3OP(=O)(O)OC[C@H]3O[C@@H](n4cc(C)c(=O)[nH]c4=O)C[C@@H]3OP(=O)(O)OC[C@H]3O[C@@H](n4cnc5c(=O)[nH]c(N)nc54)C[C@@H]3OP(=O)(O)OC[C@H]3O[C@@H](n4cnc5c(=O)[nH]c(N)nc54)C[C@@H]3OP(=O)(O)OC[C@H]3O[C@@H](n4cc(C)c(=O)[nH]c4=O)C[C@@H]3OP(=O)(O)OC[C@H]3O[C@@H](n4cc(C)c(=O)[nH]c4=O)C[C@@H]3OP(=O)(O)OC[C@H]3O[C@@H](n4cnc5c(=O)[nH]c(N)nc54)C[C@@H]3OP(=O)(O)OC[C@H]3O[C@@H](n4cnc5c(=O)[nH]c(N)nc54)C[C@@H]3O)[C@@H](COP(=O)(O)O[C@H]3C[C@H](n4cc(C)c(=O)[nH]c4=O)O[C@@H]3COP(=O)(O)O[C@H]3C[C@H](n4cnc5c(=O)[nH]c(N)nc54)O[C@@H]3COP(=O)(O)O[C@H]3C[C@H](n4cnc5c(=O)[nH]c(N)nc54)O[C@@H]3COP(=O)(O)O[C@H]3C[C@H](n4cc(C)c(=O)[nH]c4=O)O[C@@H]3COP(=O)(O)O[C@H]3C[C@H](n4cc(C)c(=O)[nH]c4=O)O[C@@H]3COP(=O)(O)O[C@H]3C[C@H](n4cnc5c(=O)[nH]c(N)nc54)O[C@@H]3COP(=O)(O)O[C@H]3C[C@H](n4cnc5c(=O)[nH]c(N)nc54)O[C@@H]3COP(=O)(O)O)O2)c(=O)[nH]c1=O`, the result in the data set on Plasma [4] and with Plasma [5] was inactive. This compound also showed a PT in the data set with Plasma [2] of 19.2 s. Also, in data set [3], the Stabilty entry is on record as “Stable”.

On to `Cc1cn([C@H]2C[C@H](OP(=O)(O)OC[C@H]3O[C@@H](n4cnc5c(=O)[nH]c(N)nc54)C[C@@H]3OP(=O)(O)OC[C@H]3O[C@@H](n4cnc5c(=O)[nH]c(N)nc54)C[C@@H]3OP(=O)(O)OC[C@H]3O[C@@H](n4cc(C)c(=O)[nH]c4=O)C[C@@H]3OP(=O)(O)OC[C@H]3O[C@@H](n4cnc5c(=O)[nH]c(N)nc54)C[C@@H]3OP(=O)(O)OC[C@H]3O[C@@H](n4cc(C)c(=O)[nH]c4=O)C[C@@H]3OP(=O)(O)OC[C@H]3O[C@@H](n4cnc5c(=O)[nH]c(N)nc54)C[C@@H]3OP(=O)(O)OC[C@H]3O[C@@H](n4cnc5c(=O)[nH]c(N)nc54)C[C@@H]3OP(=O)(O)OC[C@H]3O[C@@H](n4cc(C)c(=O)[nH]c4=O)C[C@@H]3OP(=O)(O)OC[C@H]3O[C@@H](n4cc(C)c(=O)[nH]c4=O)C[C@@H]3OP(=O)(O)OC[C@H]3O[C@@H](n4cnc5c(=O)[nH]c(N)nc54)C[C@@H]3OP(=O)(O)OC[C@H]3O[C@@H](n4cnc5c(=O)[nH]c(N)nc54)C[C@@H]3O)[C@@H](COP(=O)(O)O[C@H]3C[C@H](n4cc(C)c(=O)[nH]c4=O)O[C@@H]3COP(=O)(O)O[C@H]3C[C@H](n4cnc5c(=O)[nH]c(N)nc54)O[C@@H]3COP(=O)(O)O[C@H]3C[C@H](n4c(C(F)(F)F)nc5c(=O)[nH]c(N)nc54)O[C@@H]3COP(=O)(O)O)O2)c(=O)[nH]c1=O`, for which the deltaTm in data set [1] is 5.7 °C. Further, in the data set with Plasma [2], the PT was found to be 18.3 s. For the same compound, the Stabilty entry in data set [3] is “Unstable”.
